Where a chain is given by its changes, count along the chain named. In names and notes the source's numbering stands. Several values for one entry are separate records, joined by “and”; a condition that tells them apart may be missing. Equal values may be shown once.
What was measured:
[1] = molecular target: T1, MMACHC-wt (Homo sapiens, UniProt Q9Y4U1); set-up: method as in PMID 19700356; settings: published Kd; unit printed in b1 only; cited from earlier work
T1 construct: His-tag (N, cleaved yes); made in house; host or cells: E. coli BL21 DE3
T1 sequence (Q9Y4U1 1-282): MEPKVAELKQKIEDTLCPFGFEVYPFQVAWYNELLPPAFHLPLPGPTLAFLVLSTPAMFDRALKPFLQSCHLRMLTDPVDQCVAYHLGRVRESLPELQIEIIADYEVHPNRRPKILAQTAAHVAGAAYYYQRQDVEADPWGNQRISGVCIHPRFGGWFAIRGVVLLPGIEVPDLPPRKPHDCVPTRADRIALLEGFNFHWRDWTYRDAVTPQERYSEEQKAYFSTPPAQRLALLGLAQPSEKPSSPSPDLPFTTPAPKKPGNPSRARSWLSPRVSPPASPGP

[2] = molecular target: T2, His-MMACHC-R161Q (Homo sapiens, UniProt Q9Y4U1, R161Q); test: UV-visible absorption spectra, base-on/base-off binding; settings: 5 μM cobalamin, 50 μM protein, pH 7.0
T2 construct: made in house; host or cells: E. coli BL21 DE3
T2 sequence (Q9Y4U1 1-282 R161Q): T1 sequence (Q9Y4U1 1-282) with R161Q
Method: […] In order to retain the high amounts of protein necessary for these experiments, the His-tag (wt and R161Q) or GST-tag (wt protein) was left on. Absorption spectrum measurements were carried out using a MOS-250 spectrometer and recorded using Bio-Kine 32 v4.20 software.
(§1) In order to determine whether the R161Q mutation interferes with the ability of MMACHC to support this transition, we examined the UV–visible absorption spectra for the proteins bound to AdoCbl, as an example of an alkylcobalamin, as well as for the proteins bound to CNCbl and OHCbl. Each cobalamin was added at a concentration of […] (Fig. 5). To determine whether the cobalamin was base-on or base-off, in the case of CNCbl both base-on and base-off spectra were determined for the free vitamin, as previously reported [[12,14]]. […] Confirming our earlier data, GST-tagged MMACHC-wt bound CNCbl in the base-off state (Table 2). […] Both MMACHC-wt and MMACHC-R161Q bound AdoCbl in the base-off state (Fig. 5; Table 2). […] Finally, neither MMACHC-wt nor MMACHC-R161Q modified OHCbl binding, which retained the base-on profile regardless of the MMACHC species present (Fig. 5; Table 2).

[3] = tested on: MMACHC-G147D; set-up: method as in PMID 19700356; settings: recombinant protein, in words; cited from earlier work
[4] = molecular target: T3, MMACHC-R161Q (Homo sapiens, UniProt Q9Y4U1, R161Q); set-up: method as in PMID 19700356; settings: recombinant protein, in words; cited from earlier work
T3 construct: His-tag (N, cleaved yes); made in house; host or cells: E. coli BL21 DE3
T3 sequence (Q9Y4U1 1-282 R161Q): T1 sequence (Q9Y4U1 1-282) with R161Q

[5] = UV-visible absorption spectra of free cobalamin; type: physicochemical; settings: base-on
Method: (§2) To determine base-on or base-off binding, 5 μM of the appropriate cobalamin or cobinamde in buffer (100 mM Tris, pH 7.0), was incubated in the dark with 400 μl total of 50 μM MMACHC protein (wild-type or R161Q), prepared in the same buffer, or alone, for 5 min at room temperature. In order to retain the high amounts of protein necessary for these experiments, the His-tag (wt and R161Q) or GST-tag (wt protein) was left on. Absorption spectrum measurements were carried out using a MOS-250 spectrometer and recorded using Bio-Kine 32 v4.20 software.
as §1

[6] = molecular target: T4, His-MMACHC-wt (Homo sapiens, UniProt Q9Y4U1); test: UV-visible absorption spectra, base-on/base-off binding; settings: 5 μM cobalamin, 50 μM protein, pH 7.0
T4 construct: made in house; host or cells: E. coli BL21 DE3
T4 sequence (Q9Y4U1 1-282): T1 sequence (Q9Y4U1 1-282)
Method: as §2, §1

[7] = molecular target: T5, GST-MMACHC-wt (Homo sapiens, UniProt Q9Y4U1); test: as above; settings: 5 μM cobalamin, 50 μM protein, pH 7.0
T5 construct: made in house
T5 sequence (Q9Y4U1 1-282): T1 sequence (Q9Y4U1 1-282)
Method: as §2, §1

[8] = molecular target: T3, MMACHC-R161Q; test: Differential scanning fluorimetry (DSF), stabilization by cobalamins; type: binding; settings: DSF
Method: (§3) DSF was performed and analyzed as described in Niesen et al., with minor modifications. Purified MMACHC proteins were diluted to 0.1 mg/ml (3 μM) in buffer (10 mM HEPES pH 7.5, 0.5 M NaCl, 5% glycerol) with 1:1000 Sypro Orange (Invitrogen) and run in triplicate. The proteins were heated from 5 to 75 °C with a ramp rate of 1 °C/min in a thermocycler (Bio-rad C1000 Thermocycler, CFX96 Real-time system). All graphs were normalized so that minimum fluorescence was set to 0 and maximum fluorescence set to 1. […] Final graphs and AC50’s were generated using Kadeidagraph 4.0 software (Synergy Software, Reading, PA). AC50’s were determined by fitting the ΔTm vs. ligand concentration curves to the equation ΔTm = ΔTm max[S]/(AC50 + [S]) where ΔTm is the change in melting temperature (Tm[protein + ligand] − Tm[protein]), ΔTm max is the maximal change in Tm at saturating (50 μM) ligand concentration and [S] is the ligand concentration.
(§4) Wild-type (MMACHC-wt) and mutant (MMACHC-R161Q) MMACHC were expressed and purified to >95% purity, with His-tag removed, as judged by SDS–PAGE (Fig. 2A). In order to investigate the thermostability of MMACHC we used DSF, a method that measures protein stability and ligand-induced changes in stability [[20,21]]. DSF uses an environmentally sensitive dye, such as Sypro orange, to monitor protein-unfolding caused by heat denaturation. As the protein unfolds, the dye, which has a higher fluorescence quantum yield in nonpolar environments than in aqueous media, binds to hydrophobic regions of the protein, causing a large increase in fluorescence [[22,23]]. Protein stability is expressed as the melting point of the protein (Tm), that is, the transition midpoint of the fluorescence curve, corresponding to the temperature at which half of the protein molecules are folded and half are unfolded. […] Even lower was the stability of MMACHC-R161Q (Tm = 37.1 ± 0.7 °C) (Fig. 2B). The difference in Tm was small but nonetheless significant (p < 0.01). A second difference between the wild-type and mutant proteins was the shape of the unfolding curves, with the unfolding of the mutant protein showing high cooperativity indicating a two-state unfolding mechanism while the unfolding of the wild-type protein stretched over a larger temperature range and comprised two phases (Fig. 2B; also Fig. 3A at 0 μM OHCbl).

[9] = molecular target: T1, MMACHC-wt; test: as above; type: binding
Method: as §3, §4

[10] = Isothermal denaturation (ITD); type: physicochemical; settings: constant 35 °C over 120 min, Sypro orange fluorescence
Method: ITD was performed as previously described with minor variations. Samples of both proteins prepared similarly as for DSF (at similar concentrations) were kept at constant temperature of 35 °C while monitoring the fluorescence of Sypro orange at intervals of one minute in a thermocycler (Bio-rad C1000 Thermocycler, CFX96 Real-time system) over 120 min (n = 12 for each protein).
We performed isothermal […] (ITD) to investigate further the difference in stability between the two proteins. ITD has been described as being more sensitive than DSF for detecting small changes in protein stability. ITD measures the unfolding of proteins at a constant temperature, typically chosen as a few degrees below the Tm, using a similar procedure as DSF including the use of Sypro orange as the reporter dye. […] After 120 min the intensity reached approximately half of the amplitude seen for unfolding with DSF (Fig. 2B). […] This difference cannot be explained with the relatively small difference in the Tm. If ITD is performed at a temperature that falls within the range of the unfolding transition a gradual increase in the proportion of unfolded protein molecules, i.e. a constant increase in fluorescence intensity, would still be expected even at temperatures […] the Tm (18).

[11] = DSF thermostability of apo protein; type: physicochemical; settings: apo form, His-tag removed, no ligand
Method: as §3
Wild-type (MMACHC-wt) and mutant (MMACHC-R161Q) MMACHC were expressed and purified to >95% purity, with His-tag removed, as judged by SDS–PAGE (Fig. 2A). […] As the protein unfolds, the dye, which has a higher fluorescence quantum yield in nonpolar environments than in aqueous media, binds to hydrophobic regions of the protein, causing a large increase in fluorescence [[22,23]]. […]

[12] = Tm at 50 μM ligand minus Tm at 0 μM ligand
[13] = half-maximal effective ligand concentration for stabilization, 3 μM protein, fit of ΔTm vs ligand concentration

## C/C1=C2/[N-][C@H]([C@H](CC(N)=O)[C@@]2(C)CCC(=O)NC[C@@H](C)OP(=O)([O-])O[C@H]2[C@@H](O)[C@@H](n3cnc4cc(C)c(C)cc43)O[C@@H]2CO)[C@]2(C)N=C(/C(C)=C3N=C(/C=C4N=C1[C@@H](CCC(N)=O)C\4(C)C)[C@@H](CCC(N)=O)[C@]\3(C)CC(N)=O)[C@@H](CCC(N)=O)[C@]2(C)CC(N)=O.[Co+3].[OH-] [OHCbl, Hydroxocobalamin]
[1]
  Kd: 6 µM and 5.7 µM
[2]
  Base-on/off: base-on and On
[2]; nm
  α/β-Peak: 535 nm
[2]; wavelength
  γ-Peak: 354
[3]
  cobalamin binding: unable to bind
[4]
  cobalamin binding: wild-type affinity
[5]; nm
  α/β-Peak: 525 nm
[5]; wavelength
  γ-Peak: 350 nm
[6]
  Base-on/off: base-on and On
[6]; nm
  α/β-Peak: 532 nm
[6]; wavelength
  γ-Peak: 356
[7]
  Base-on/off: On
[7]; nm
  α/β-Peak: 522 nm
[7]; wavelength
  γ-Peak: 355
[8]; [12]
  ΔTm max: 4 °C and 3.7 ± 0.1 °C
[8]; [13]
  AC50: 7 µM and 6.6 µM
[9]; [12]
  ΔTm max: 8 °C and 7.9 ± 0.6 °C
[9]; [13]
  AC50: 3 µM

B1: MMACHC-wt: recombinant wild-type MMACHC protein, His-tag removed by TEV (protein, UniProt Q9Y4U1 1-282, looked up)
Cyanocobalamin reductase / …: T1 sequence (Q9Y4U1 1-282)
[10]
  unfolding by isothermal denaturation: did not unfold
[11]
  melting temperature (Tm): 39.3 ± 1.0 °C

B2: MMACHC-R161Q: recombinant MMACHC protein carrying the late-onset cblC mutation R161Q, His-tag removed (protein, UniProt Q9Y4U1 1-282, looked up, variant R161Q)
Cyanocobalamin reductase / …: T1 sequence (Q9Y4U1 1-282) with R161Q
[10]
  unfolding by isothermal denaturation: unfolding
[11]
  melting temperature (Tm): 37.1 ± 0.7 °C

— article PMC2923755, “Thermolability of mutant MMACHC protein in the vitamin B12-responsive cblC disorder” (Molecular Genetics and Metabolism, 2010)
